What was measured:
rat = test: Arthritis pain test on the rat (inhibition of the arthritis pain); format: in vivo, rat (male, strain OFA); conditions: p.o., 3 hours after oral dosage
Experimental: ARTHRITIS PAIN TEST ON THE RAT
Male rats of the strain OFA with a weight of 160-180 g. are anaesthetised by administration of 20 mg./kg. i.p. of phenobarbital sodium. 0.1 ml. of a suspension of Mycobacterium Smegmae (S1043) in paraffin oil (0.6 mg. of Mycobact./0.1 ml. of oil) are injected intracutaneously into the left rear paw. 14 days later, when a marked secondary arthritis has developed, particularly in the right rear paw, the effects of the test substances are investigated. 30 minutes before administration of the test substances, a control measurement in undertaken in which the ankle joint of the right rear paw is flexed three times and the number of sounds given out is counted. […] 3 hours after oral dosage of the test substance, the flexion procedure is repeated. Animals which either give out sound only once or not at all are regarded as being protected against pain. Between 9 and 20 rats are used per dose and the ED50 (95% confidence range) is determined by the method of Litchfield and Wilcoxon) (1949). The ED50 is designated at that dose which produces protection in 50% of the animals treated.

mouse [1] = test: Tail flick ray test on the mouse; format: in vivo; conditions: sc, 0.5 h, s.c., 30 minutes after administration
Experimental: TAIL FLICK RAY TEST ON THE MOUSE
The method is based on the procedure described by D'Amour and Smith (1941). However, non-fasting male and female mice having body weights of 16-25 g. are used instead of rats. 30 minutes before treatment with the test substance, each mouse is placed alone in a cylindrical vessel such that it cannot turn round and move forward. Its tail, lying in a narrow groove, projects out of the vessel. A particular point on the tail of each animal (at about 35 mm. from the root of the tail) is subjected to the radiant heat from a lamp of known intensity and temperature which is situated directly beneath the tail. The time in seconds required by the mouse to flick the tail out of the ray of light is determined twice, once 30 and once 15 minutes before subcutaneous administration of the test substance (10 mg./kg.). The mice for which the reaction times deviate by more than 25% are eliminated. The reaction times are again measured 15 and 30 minutes after treatment and an increase in the reaction times of more than 75% of the average values before treatment of the same mouse is regarded as an analgesic effect. The ED50 (95% confidence range) of each test substance 30 minutes after administration is regarded as that dose which increases the reaction time before treatment by more than 75% in 50% of the animals. The calculation is carried out in accordance with the method of Litchfield and Wilcoxon (1949).

mouse [2] = test: Determination of the minimum toxic dose; format: in vivo, mouse (male); conditions: p.o.; maximum dose 300 mg/kg; symptoms recorded for 24 hours
Experimental: DETERMINATION OF THE MINIMUM TOXIC DOSE
Maximum doses of 300 mg/kg. of the test substance are administered orally to male mice of 20-25 g. weight. The animals are observed carefully for toxicity symptoms for 3 hours. In addition, all symptoms and cases of death are recorded for a period of 24 hours after administration. Accompanying symptoms are also observed and recorded. If death- or toxic symptoms are observed, decreasing doses are administered to additional mice until no more toxic symptoms occur. The lowest dose which induces toxic symptoms is reported as the minimum toxic dose.

Structure (SMILES) | ED50 (rat) [mg/kg] | ED50 (mouse [1]) [mg/kg] | Minimum toxic dose in the mouse (mouse [2]) [mg/kg]
CN1c2ccccc2C(c2ccsc2)=NCC1CNC(=O)c1ccoc1 (stereo not shown) [Example 1, 1-Methyl-2-[(furan-3-carbonyl)-aminomethyl]-5-(3'-thienyl)-1H-2,3-dihydro-1,4-benzodiazepine] | 32 to 56 | 1 | 200
COc1ccc2c(c1)N(C)C(CNC(=O)c1ccccc1)CN=C2c1ccsc1 (stereo not shown) [Example 5, 8-Methoxy-1-methyl-2-benzoylaminomethyl-5-(3'-thienyl)-1H-2,3-dihydro-1,4-benzodiazepine] | ~10 | 2.7 | 300
CN1c2ccccc2C(c2ccsc2)=NCC1CNC(=O)c1ccc(C(F)(F)F)cc1 (stereo not shown) [Example 6, 1-Methyl-2-[(4'-trifluoromethylbenzoyl)-aminomethyl]-5-(3'-thienyl)-1H-2,3-dihydro-1,4-benzodiazepine] | 2 |  | 300
CN1c2ccccc2C(c2ccsc2)=NCC1CNC(=O)c1ccc(C#N)cc1 (stereo not shown) [Example 7, 1-Methyl-2-[(4-cyanobenzoyl)-aminomethyl]-5-(3'-thienyl)-1H-2,3-dihydro-1,4-benzodiazepine] | 8.5 |  | > 300
CN1c2ccccc2C(c2ccsc2)=NCC1CNC(=O)c1ccccc1 (stereo not shown) [Example 11] | ~2 | 2.8 | 300
COc1ccc2c(c1)N(C)C(CNC(=O)c1ccc(C(F)(F)F)cc1)CN=C2c1ccsc1 (stereo not shown) [Example 12] | 32 |  | > 300
COc1ccc2c(c1)N(C)C(CNC(=O)c1ccsc1)CN=C2c1ccsc1 (stereo not shown) [Example 13] | 32 to 56 | 10 | 200
CN1c2cc3c(cc2C(c2ccsc2)=NCC1CNC(=O)c1cccs1)OCO3 (stereo not shown) [Example 14] | 32 to 56 | 5 | 100
CN1c2ccccc2C(c2ccc(Cl)s2)=NCC1CNC(=O)c1ccc(C#N)cc1 (stereo not shown) [Example 84] | 18 |  | > 300
Cc1ccsc1C1=NCC(CNC(=O)c2ccoc2)N(C)c2ccccc21 (stereo not shown) [Example 87] | 18 to 32 | 2.6 | 
Cc1ccsc1C1=NCC(CNC(=O)c2ccccc2)N(C)c2ccccc21 (stereo not shown) [Example 88] | 18 to 32 | 8.3 | 
Cc1ccsc1C1=NCC(CNC(=O)c2ccc(C#N)cc2)N(C)c2ccccc21 (stereo not shown) [Example 89] | 10 |  | 

Source: patent US4649137A, “2-acylaminomethyl-1,4-benzodiazepine compounds, the preparation thereof, and pharmaceutical compositions containing them” (Kali-Chemie Pharma GmbH, priority 1981, dated 1987)
